In US11964943B2, “3,5-diarylidenyl-n-substituted-piperid-4-one-derived inhibitors of Stat3 pathway activity and uses thereof” (priority 2017, dated 2024):

Assays:
[1] = tested on: HCT116-oxaliplatin resistant xenografts; assay: In vivo survival experiment; set-up: species or system mice
Method: Six- to eight-week old female Balb/c mice (weighing about 20 g) were purchased from the Harlan Laboratories, San Pietro al Natisone, Italy. The animals were kept in a pathogen-free environment, and every procedure was done in a laminar airflow cabinet. HCT16-oxaliplatin resistant cells (5×10^5) were injected subcutaneously into the right flank of female Balb/c mice. The animals were treated with IE-8 intraperitoneally (30 mg kg-1; solutions freshly prepared in the standard mixture of 1% DMSO, Cremophor, Ethanol and H2O) on days 10, 13 and 17. The animals were controlled for distress development every day. […] Control and treatment group n=4.

nuclear Stat3 = assay: Confocal microscopy of Stat3 localisation; assay type: cell-based; conditions: DU145, 5 μM, 5 h
Method: For Stat3, pStat3 staining, 2.5×10^4 cells/ml were plated on 13-mm glass cover slip (VWR) in 24 well plates, allowed to adhere and processed the next day. […] Cells were blocked in PBS 5% BSA for 1 h at ambient temperature. Respective proteins were identified by incubation for 4 h with anti-Stat3 and anti-pStat3 rabbit polyclonal antibodies (1:1000, Cell signalling) or anti-phospho-Histone H2A.X mouse monoclonal (1:500; Millipore) diluted in a PBS 1% BSA buffer. Cells were incubated with a secondary fluorescent conjugated antibody Alexa Fluor 488 (1:500; Life Technologies) for 2 h at RT. […]
(§1) Cell nuclei and protein levels were visualized by confocal microscopy (objective ×40, Leica TCS SP2). […] In the case of IE-8 detection only, the blue fluorescent agent was excited with a UV-laser (364 nm) and detected using the DAPI filter. PI was excited with the 488 line of an argon-ion laser and detected at 642 nm. The fluorescence of IE-8 was detected and imaged by z-stack acquisition using the Leica SP2 microscope software. […]
as §1, with “Confocal microscopy.” for “Cell nuclei and protein levels were visualized by confocal microscopy (objective ×40, Leica TCS SP2).”, “8 h” for “IE-8”

[2] = tested on: BRCA1, FANCD2, EME1 and MUS81; assay: RT-PCR and immunoblotting of DNA ICL repair factors; assay type: cell-based; conditions: DU145 cells, 18 h
Method: Whole cell lysates were prepared by incubation of harvested, trypsinised cells with CelLytic™ lysis buffer (Sigma-Aldrich) supplemented with 1× protease and 1× phosphatase inhibitors (Roche). Protein quantification was carried out using a protein assay kit (Bio-Rad). 40 μg of the lysates were denatured by heating for 5 min at 95° C. in sample buffer containing 100 mM Tris-Cl (pH 6.8), 4% SDS, 10% 2-mercaptoethanol, 20% glycerol, and 0.02% bromophenol blue. Precision Plus Protein Dual colour standards (Bio-Rad) were used as a molecular weight reference. For the detection of STAT3, pSTAT3, α/β tubulin, cleaved PARP, Bcl-2, Bcl-xL, FANCD2, BRCA1, EME1 and MUS81, proteins were separated on a NuPAGE 7% Tris-acetate gel (Life Technologies) and subsequently transferred to polyvinylidene difluoride membranes (Immobilon®-P transfer membrane; Millipore). […]
After drug-treatment cells were harvested by trypsinisation followed by centrifugation. […] TaqMan Gene Expression Assays (Life Technologies) for FANCD2, BRCA1, EME1 and MUS81 were used to quantify changes in gene expression. […] Fold change was calculated using the comparative CT method normalizing to GAPDH expression.
RT-PCR. […] TaqMan Gene Expression Assays (Life Technologies) for FANCD2, BRCA1, EME1 and MUS81 were used to quantify changes in gene expression. […] Fold change was calculated using the comparative CT method normalizing to GAPDH expression.

Structure (SMILES): COc1cc(/C=C2\CN(c3ccccc3)C/C(=C\c3cc(OC)c(OC)c(OC)c3)C2=O)cc(OC)c1OC [IE-8, 3,5-Di(3,4,5-trimethoxybenzylidene)-1-phenylpiperidin-4-one]
- body weight loss ([1]; 30 mg/kg intraperitoneally on days 10, 13 and 17): No body weight loss was observed
- prolongation of survival versus vehicle ([1]; 30 mg/kg intraperitoneally on days 10, 13 and 17, n=4): about 20 days
- levels of nuclear Stat3 (nuclear Stat3): the levels of nuclear Stat3 were decreased
- expression of BRCA1, FANCD2, EME1 and MUS81 (mRNA and protein) [2]: markedly downregulated
